Values of other authors as cited in patent US10493116B2, “Longevity gene expression enhancer” (Shiseido Company, Ltd., priority 2014, dated 2019).

Experiments:
sirtuin-1 [1] = biological target: T1, sirtuin-1 (Homo sapiens, UniProt Q96EB6)
T1 sequence (Q96EB6 1-747): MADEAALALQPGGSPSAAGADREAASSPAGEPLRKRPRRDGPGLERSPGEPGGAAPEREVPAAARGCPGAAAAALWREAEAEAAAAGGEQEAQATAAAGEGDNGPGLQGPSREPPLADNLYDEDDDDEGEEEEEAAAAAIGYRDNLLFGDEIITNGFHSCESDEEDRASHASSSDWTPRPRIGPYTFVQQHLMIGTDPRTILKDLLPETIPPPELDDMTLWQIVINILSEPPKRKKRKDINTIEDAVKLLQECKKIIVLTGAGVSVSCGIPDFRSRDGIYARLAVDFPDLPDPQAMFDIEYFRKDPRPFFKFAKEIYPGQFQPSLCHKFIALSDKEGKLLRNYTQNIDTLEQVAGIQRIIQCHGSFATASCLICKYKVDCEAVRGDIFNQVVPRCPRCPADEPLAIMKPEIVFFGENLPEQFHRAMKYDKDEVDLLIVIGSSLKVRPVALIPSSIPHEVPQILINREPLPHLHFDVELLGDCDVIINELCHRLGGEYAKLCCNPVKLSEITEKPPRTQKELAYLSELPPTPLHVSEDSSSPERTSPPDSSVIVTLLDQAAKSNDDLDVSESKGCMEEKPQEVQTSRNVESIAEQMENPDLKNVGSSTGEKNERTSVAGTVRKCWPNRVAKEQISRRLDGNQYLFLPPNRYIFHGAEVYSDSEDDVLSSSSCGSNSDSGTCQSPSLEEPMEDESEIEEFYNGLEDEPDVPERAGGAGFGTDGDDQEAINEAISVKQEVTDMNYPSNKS

sirtuin-1 [2] = conditions: quercetin produced from rutin in the body; J. Pharmacol. Sci., 2008, 108, 364-71

Structure (SMILES): O=C(/C=C/c1ccc(O)c(O)c1)O[C@@H]1C[C@](O)(C(=O)O)C[C@@H](O)[C@H]1O [chlorogenic acid]
- sirtuin-1 activating effect (sirtuin-1 [1]; PLoS One, 2014, 9(2), e89166): no sirtuin-1 activating effect

Structure (SMILES): COc1ccc([C@@H]2CC(=O)c3c(O)cc(O[C@@H]4O[C@H](CO[C@@H]5O[C@@H](C)[C@H](O)[C@@H](O)[C@H]5O)[C@@H](O)[C@H](O)[C@H]4O)cc3O2)cc1O [hesperidin]
- effect of activating sirtuin-1 (sirtuin-1 [1]; at 5 μM, Biosci. Biotechnol. Biochem., 2012, 76(4), 640-645): effect of activating sirtuin-1

Structure (SMILES): O=c1c(O)c(-c2ccc(O)c(O)c2)oc2cc(O)cc(O)c12 [quercetin]
- sirtuin-1 expression inhibiting effect (sirtuin-1 [2]): sirtuin-1 expression inhibiting effect
